Values quoted from earlier work as cited in US20070099846A1, “Composition containing dipeptide of histidine and alanine for reducing uric acid and method for reducing uric acid using the dipeptide” (LYTONE ENTERPRISE, INC., priority 2003, published 2007).

Tested on: peptidase and proteases excreted from pancreas or other digestive organs

NCCC(=O)N[C@@H](Cc1cnc[nH]1)C(=O)O [carnosine, β-alanyl-L-histidine]
Resistance against digestion by peptidase and proteases: resist against digestion
